The values below come from patent US10544143B2, “4-azaindole compounds” (BRISTOL-MYERS SQUIBB COMPANY, priority 2017, dated 2020).

Assay [1] deals with human TLR8 (Homo sapiens (Human), UniProt Q9NR97). The assay is described as follows: TLR8 inhibition reporter assay (HEK-Blue SEAP). (In general: A reporter such as luciferase makes a cellular process visible.)
Assay [2] addresses human TLR9 (Homo sapiens (Human), UniProt Q9NR96). The assay can be described thus: TLR9 inhibition reporter assay (HEK-Blue SEAP).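 Further: SEAP driven by an IFN-β minimal promoter with NF-κB and AP-1 sites, read after 22 h, compounds dosed 0.05 nM–50 µM, inhibition scaled between agonist plus DMSO and reference-inhibitor wells.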
Assay [3] has as its target human TLR7 (Homo sapiens (Human), UniProt Q9NYK1). The assay can be described thus: TLR7 inhibition reporter assay (HEK-Blue SEAP). Format: cell-based.
Where [4] appears, read: read-out: TLR8 IC50, HEK-Blue cells overexpressing human TLR8, SEAP reporter, R848 15.9 μM.
[5] abbreviates: read-out: TLR9 IC50, HEK-Blue cells overexpressing human TLR9, SEAP reporter, ODN2006 5 nM.
[6] abbreviates: HEK-Blue cells overexpressing human TLR7, SEAP reporter, gardiquimod 7.5 μM.
[7] abbreviates: read-out: TLR8 IC50, HEK-Blue cells overexpressing human TLR8, R848 15.9 μM stimulation, SEAP reporter.
Where [8] appears, read: read-out: TLR9 IC50, HEK-Blue cells overexpressing human TLR9, ODN2006 5 nM stimulation, SEAP reporter.
[9] abbreviates: HEK-Blue cells overexpressing human TLR7, gardiquimod 7.5 μM stimulation, SEAP reporter.
Setting [10] is: read-out: TLR8 IC50, HEK-Blue human TLR8 cells, R848 15.9 μM.
The mark [11] stands for this setting: read-out: TLR9 IC50, HEK-Blue human TLR9 cells, ODN2006 5 nM.
The mark [12] stands for this setting: HEK-Blue human TLR7 cells, gardiquimod 7.5 μM.

Read-outs that look alike come from different tables or passages of the source.

Chain of human TLR8 (Q9NR97 27-1041): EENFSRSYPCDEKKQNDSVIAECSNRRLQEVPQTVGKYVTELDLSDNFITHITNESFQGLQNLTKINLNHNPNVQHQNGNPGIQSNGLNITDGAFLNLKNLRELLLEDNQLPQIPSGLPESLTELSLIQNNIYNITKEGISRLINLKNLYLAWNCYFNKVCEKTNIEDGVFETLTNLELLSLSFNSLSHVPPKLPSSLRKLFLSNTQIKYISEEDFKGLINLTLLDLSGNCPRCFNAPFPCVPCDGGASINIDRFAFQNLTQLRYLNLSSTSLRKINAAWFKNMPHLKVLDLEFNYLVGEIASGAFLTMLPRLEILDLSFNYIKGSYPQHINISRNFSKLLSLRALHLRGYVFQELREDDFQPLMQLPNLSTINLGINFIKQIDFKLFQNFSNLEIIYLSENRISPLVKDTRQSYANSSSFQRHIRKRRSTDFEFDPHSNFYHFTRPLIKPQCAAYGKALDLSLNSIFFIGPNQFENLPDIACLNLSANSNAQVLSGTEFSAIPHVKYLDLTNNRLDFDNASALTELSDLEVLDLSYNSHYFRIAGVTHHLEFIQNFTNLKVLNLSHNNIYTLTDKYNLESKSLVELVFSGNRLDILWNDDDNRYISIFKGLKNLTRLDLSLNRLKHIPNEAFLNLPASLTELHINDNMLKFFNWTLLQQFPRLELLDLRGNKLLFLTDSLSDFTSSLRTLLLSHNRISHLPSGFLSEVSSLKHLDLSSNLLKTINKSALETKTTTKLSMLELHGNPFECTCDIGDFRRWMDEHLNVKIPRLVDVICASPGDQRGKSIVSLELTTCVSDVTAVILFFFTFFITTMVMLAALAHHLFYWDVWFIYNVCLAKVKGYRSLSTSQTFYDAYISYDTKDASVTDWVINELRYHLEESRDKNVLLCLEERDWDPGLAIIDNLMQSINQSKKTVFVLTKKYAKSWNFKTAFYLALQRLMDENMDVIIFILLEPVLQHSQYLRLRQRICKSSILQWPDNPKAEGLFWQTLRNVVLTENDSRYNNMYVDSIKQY
Chain of human TLR9 (Q9NR96 26-1032): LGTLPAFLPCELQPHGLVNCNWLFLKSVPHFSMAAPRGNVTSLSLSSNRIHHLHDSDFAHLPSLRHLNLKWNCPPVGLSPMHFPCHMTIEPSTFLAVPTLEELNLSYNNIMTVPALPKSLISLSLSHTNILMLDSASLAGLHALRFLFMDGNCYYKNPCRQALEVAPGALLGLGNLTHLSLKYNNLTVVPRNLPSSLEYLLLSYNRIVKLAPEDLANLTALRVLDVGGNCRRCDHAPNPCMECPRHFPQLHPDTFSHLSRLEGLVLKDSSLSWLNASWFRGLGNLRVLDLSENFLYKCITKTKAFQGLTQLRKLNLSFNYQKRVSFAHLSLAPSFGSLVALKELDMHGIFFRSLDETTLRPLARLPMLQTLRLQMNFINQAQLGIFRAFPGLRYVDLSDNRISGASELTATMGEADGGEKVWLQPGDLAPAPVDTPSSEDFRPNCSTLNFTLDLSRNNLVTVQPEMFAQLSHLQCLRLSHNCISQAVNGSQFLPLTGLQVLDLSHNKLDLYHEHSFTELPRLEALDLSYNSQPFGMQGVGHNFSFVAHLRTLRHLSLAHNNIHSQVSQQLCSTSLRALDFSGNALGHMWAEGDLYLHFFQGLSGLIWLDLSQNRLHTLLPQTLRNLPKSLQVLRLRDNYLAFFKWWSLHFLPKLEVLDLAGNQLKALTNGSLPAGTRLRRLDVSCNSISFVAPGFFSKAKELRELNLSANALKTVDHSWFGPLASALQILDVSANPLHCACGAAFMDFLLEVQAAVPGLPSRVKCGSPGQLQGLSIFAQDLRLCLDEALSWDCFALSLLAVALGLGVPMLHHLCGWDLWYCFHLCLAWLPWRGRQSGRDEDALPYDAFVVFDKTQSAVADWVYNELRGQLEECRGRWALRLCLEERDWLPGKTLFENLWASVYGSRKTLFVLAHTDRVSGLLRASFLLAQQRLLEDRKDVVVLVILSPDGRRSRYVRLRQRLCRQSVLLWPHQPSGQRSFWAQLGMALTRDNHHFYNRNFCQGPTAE
Chain of human TLR7 (Q9NYK1 27-1049): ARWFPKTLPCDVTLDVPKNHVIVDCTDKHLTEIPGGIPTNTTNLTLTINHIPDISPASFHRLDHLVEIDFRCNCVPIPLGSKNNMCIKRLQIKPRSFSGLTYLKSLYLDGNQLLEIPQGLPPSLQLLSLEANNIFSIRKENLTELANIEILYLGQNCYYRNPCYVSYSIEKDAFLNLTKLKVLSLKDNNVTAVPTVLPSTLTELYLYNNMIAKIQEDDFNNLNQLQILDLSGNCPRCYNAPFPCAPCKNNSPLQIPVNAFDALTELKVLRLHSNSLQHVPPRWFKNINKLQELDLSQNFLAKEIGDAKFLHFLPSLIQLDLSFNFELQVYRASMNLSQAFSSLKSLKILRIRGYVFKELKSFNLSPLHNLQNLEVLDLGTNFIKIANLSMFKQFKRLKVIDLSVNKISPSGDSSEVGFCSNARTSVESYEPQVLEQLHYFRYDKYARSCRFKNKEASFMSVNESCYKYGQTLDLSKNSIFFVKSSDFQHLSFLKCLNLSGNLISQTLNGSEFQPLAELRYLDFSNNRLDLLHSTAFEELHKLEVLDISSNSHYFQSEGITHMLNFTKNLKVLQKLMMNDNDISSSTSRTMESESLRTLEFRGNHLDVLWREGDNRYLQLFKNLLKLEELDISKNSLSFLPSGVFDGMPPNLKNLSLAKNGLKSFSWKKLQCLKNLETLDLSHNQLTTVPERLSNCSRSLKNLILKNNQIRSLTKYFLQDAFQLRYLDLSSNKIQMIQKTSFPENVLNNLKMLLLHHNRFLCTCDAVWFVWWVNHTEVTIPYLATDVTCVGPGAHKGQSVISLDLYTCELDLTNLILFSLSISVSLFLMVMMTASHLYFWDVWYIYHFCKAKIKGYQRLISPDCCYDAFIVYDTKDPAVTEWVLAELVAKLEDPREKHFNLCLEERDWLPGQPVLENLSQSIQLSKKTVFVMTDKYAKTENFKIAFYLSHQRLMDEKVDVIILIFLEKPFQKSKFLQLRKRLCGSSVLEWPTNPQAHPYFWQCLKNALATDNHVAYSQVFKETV

The term IC50 denotes the concentration at which inhibition is half-maximal. With `COc1cc(-c2[nH]c3ccc(C4CCC(N(CC#N)CC#N)C4)nc3c2C(C)C)cn2ncnc12` (stereo not drawn) [Example 730], the IC50 in assay [1] (setting [4]) was found to be 23 nM; in assay [2] (setting [5]) it was 10500 nM; in assay [3] (setting [6]), 3.3 nM.
The like results for `COc1cc(-c2[nH]c3ccc(OCC4CCN(C5CCOCC5)CC4)nc3c2C(C)C)cn2ncnc12` [Example 591, 6-(3-isopropyl-5-((1-(tetrahydro-2H-pyran-4-yl)piperidin-4-yl)methoxy)-1H-pyrrolo[3,2-b]pyridin-2-yl)-8-methoxy-[1,2,4]triazolo[1,5-a]pyridine] were, in that order, 7.7 nM, 2850 nM and 4.8 nM.
Regarding `Cc1c(-c2[nH]c3ccc(N4CCN(CC(=O)N(C)C)CC4=O)nc3c2C(C)C)cn2ncnc2c1C` [Example 141], the values for the IC50 in assay [1] (setting [7]), in assay [2] (setting [8]) and in assay [3] (setting [9]) were 148 nM, greater than 50000 nM and 134 nM, respectively.
For the compound `COc1cc(-c2[nH]c3ccc(C4CN(C)CCO4)nc3c2C(C)C)cn2ncnc12` (stereo not drawn) [Example 661], the IC50 in assay [1] (setting [4]) is 5.5 nM; in assay [2] (setting [5]), 13900 nM; in assay [3] (setting [6]), 2.3 nM.
`COc1cc(-c2[nH]c3cc(F)c(C4CCN(C5COC5)CC4)nc3c2C(C)C)cn2ncnc12` [Example 574]: the IC50 in assay [1] (setting [4]) was found to be 47 nM; in assay [2] (setting [5]) it was 11900 nM; in assay [3] (setting [6]), 3 nM.
For `Cc1c(-c2[nH]c3ccc(C4CCN(CC#N)CC4)nc3c2C(C)C)cn2ncnc2c1C` [Example 557], the values for the IC50 in assay [1] (setting [4]), in assay [2] (setting [5]) and in assay [3] (setting [6]) were 1.2 nM, 440 nM and 0.66 nM, respectively.
For `Cc1c(-c2[nH]c3ccc(N4C[C@@H](C)N(C(=O)CCN5CCCC5)C[C@@H]4C)nc3c2C(C)C)cn2ncnc2c1C` [Example 739, 1-((2R,5S)-4-(2-(7,8-dimethyl-[1,2,4]triazolo[1,5-a]pyridin-6-yl)-3-isopropyl-1H-pyrrolo[3,2-b]pyridin-5-yl)-2,5-dimethylpiperazin-1-yl)-3-(pyrrolidin-1-yl)propan-1-one], the IC50 is 1.6 nM in assay [1] (setting [4]), 5320 nM in assay [2] (setting [5]) and 0.85 nM in assay [3] (setting [6]).
In the case of `CC(C)c1c(-c2cc(CO)c3ncnn3c2)[nH]c2ccc(C3CCC(NCCC(F)(F)F)CC3)nc12` (stereo not drawn) [Example 307], the IC50 in assay [1] (setting [7]) is 2.7 nM; in assay [2] (setting [8]) it was 2980 nM; in assay [3] (setting [9]) it was 0.86 nM.
As to `COc1cc(-c2[nH]c3ccc(C4CCC(N)C4)nc3c2C(C)C)cn2ncnc12` (racemic) [Example 7, 3-(3-isopropyl-2-(8-methoxy-[1,2,4]triazolo[1,5-a]pyridin-6-yl)-1H-pyrrolo[3,2-b]pyridin-5-yl)cyclopentan-1-amine], the IC50 in assay [1] (TLR8 IC50, HEK-Blue cells overexpressing human TLR8, R848 15.9 μM stimulation, SEAP reporter) was found to be 52 nM; in assay [2] (TLR9 IC50, HEK-Blue cells overexpressing human TLR9, ODN2006 5 nM stimulation, SEAP reporter), 8120 nM; in assay [3] (setting [9]), 4.4 nM.
For `Cc1c(-c2[nH]c3ccc(N4CCC(N(C)Cc5ncccn5)CC4)nc3c2C(C)C)cn2ncnc2c1C` [Example 78], the half-maximal inhibitory concentration (IC50) was 10 nM in assay [1] (setting [7]), 3170 nM in assay [2] (setting [8]) and 3.7 nM in assay [3] (setting [9]).
As for `C#CCNC1CCC(c2ccc3[nH]c(-c4cn5ncnc5c(C)c4C)c(C(C)C)c3n2)CC1` (stereo not drawn) [Example 375], the IC50 in assay [1] (setting [7]) came out at 4.4 nM; in assay [2] (setting [8]) it was 2720 nM; in assay [3] (setting [9]), 0.87 nM.
In the case of `COc1cc(-c2[nH]c3ccc(C4CCC(NC5COC5)C4)nc3c2C(C)C)cn2ncnc12` (stereo not drawn) [Example 715], the IC50 in assay [1] (setting [4]) amounted to 11 nM; in assay [2] (setting [5]) it was 8710 nM; in assay [3] (setting [6]) it was 1.7 nM.
For `Cc1c(-c2[nH]c3ccc(C4CCC(N(CCO)CC(=O)N(C)C)CC4)nc3c2C(C)C)cn2ncnc2c1C` (stereo not drawn) [Example 463], the values for the IC50 in assay [1] (setting [4]), in assay [2] (setting [5]) and in assay [3] (setting [6]) were 24 nM, 16000 nM and 7.4 nM, respectively.
Turning to `Cc1c(-c2[nH]c3ccc(N4CCN(C(=O)C5(N(C)C)CC5)CC4)nc3c2C(C)C)cn2ncnc2c1C` [Example 854], the IC50 was 5 nM in assay [1] (setting [10]), 32300 nM in assay [2] (setting [11]) and 11 nM in assay [3] (setting [12]).
As for `COc1cc(-c2[nH]c3ccc(C4CCC(N(C)CC(=O)N(C)C)CC4)nc3c2C(C)C)cn2ncnc12` (stereo not drawn) [Example 226], the values for the IC50 in assay [1] (setting [7]), in assay [2] (setting [8]) and in assay [3] (setting [9]) were 14 nM, 1790 nM and 2.7 nM, respectively.
For `Cc1c(-c2[nH]c3ccc(N4CCN(CCCS(C)(=O)=O)[C@H](C)C4)nc3c2C(C)C)cn2ncnc2c1C` [Example 856], the IC50 stood at 0.46 nM in assay [1] (setting [10]), 27100 nM in assay [2] (setting [11]) and 7.3 nM in assay [3] (setting [12]).
`Cc1c(-c2[nH]c3ccc(N4C[C@H](C)N(CCC(N)=O)C[C@H]4C)nc3c2C(C)C)cn2ncnc2c1C` [Example 847]: the results for the IC50 in assay [1] (setting [10]), in assay [2] (setting [11]) and in assay [3] (setting [12]) were 8.3 nM, 22500 nM and 4.9 nM, respectively.
For the compound `COc1cc(-c2[nH]c3ccc(CCC4CNC4)nc3c2C(C)C)cn2ncnc12` [Example 697], the values for the IC50 in assay [1] (setting [4]), in assay [2] (setting [5]) and in assay [3] (setting [6]) were 111 nM, 919 nM and 20 nM, respectively.
Regarding `Cc1c(-c2[nH]c3ccc(N4CCC(NCc5csnn5)CC4)nc3c2C(C)C)cn2ncnc2c1C` [Example 56], the IC50 in assay [1] (setting [7]) stood at 1.1 nM; in assay [2] (setting [8]), 6340 nM; in assay [3] (setting [9]), 2 nM.
As to `COc1cc(-c2[nH]c3ccc(C4CC(NC(=O)CN(C)C)C4)nc3c2C(C)C)cn2ncnc12` (stereo not drawn) [Example 619], the IC50 in assay [1] (setting [4]) was determined as 3 nM; in assay [2] (setting [5]), 865 nM; in assay [3] (setting [6]) it was 0.43 nM.
Take `Cc1c(-c2[nH]c3ccc(C4CCN(CC(C)(C)O)CC4)nc3c2C(C)C)cn2ncnc2c1C` [Example 541]: the values for the IC50 in assay [1] (setting [4]), in assay [2] (setting [5]) and in assay [3] (setting [6]) were 0.36 nM, 1430 nM and 1.2 nM, respectively.
On to `Cc1c(-c2[nH]c3ccc(N4CCC(N(C)Cc5ncccn5)CC4)nc3c2C(C)C)cn2ncnc2c1C` [Example 60], for which the IC50 came out at 5.9 nM in assay [1] (setting [7]), 20200 nM in assay [2] (setting [8]) and 5.6 nM in assay [3] (setting [9]).
For the compound `Cc1c(-c2[nH]c3ccc(N4CCN(C(=O)CN(CCO)C(C)(C)C)[C@H](C)C4)nc3c2C(C)C)cn2ncnc2c1C` [Example 955], the figures for the IC50 in assay [1] (setting [10]), in assay [2] (setting [11]) and in assay [3] (setting [12]) were 2 nM, 20400 nM and 0.76 nM, respectively.
In the case of `COc1cc(-c2[nH]c3ccc(N4CCN(C(C)CCO)CC4)nc3c2C(C)C)cn2ncnc12` (stereo not drawn) [Example 118], the IC50 in assay [1] (setting [7]) came to 0.86 nM; in assay [2] (setting [8]), 5580 nM; in assay [3] (setting [9]), 1.8 nM.
For the compound `COc1cc(-c2[nH]c3ccc(C4CCC(NC(C)C5CC5)C4)nc3c2C(C)C)cn2ncnc12` (stereo not drawn) [Example 724], the results for the IC50 in assay [1] (setting [4]), in assay [2] (setting [5]) and in assay [3] (setting [6]) were 2 nM, 2190 nM and 0.63 nM, respectively.
On to `COc1cc(-c2[nH]c3cc(F)c(C4CCC(N5CC6(COC6)C5)CC4)nc3c2C(C)C)cn2ncnc12` (stereo not drawn) [Example 344], for which the IC50 turned out to be 4.8 nM in assay [1] (setting [7]), 2790 nM in assay [2] (setting [8]) and 0.72 nM in assay [3] (setting [9]).
`CCN(CC(=O)N1CCN(c2ccc3[nH]c(-c4cn5ncnc5c(C)c4C)c(C(C)C)c3n2)CC1)C(C)C` [Example 879]: the values for the IC50 in assay [1] (setting [10]), in assay [2] (setting [11]) and in assay [3] (setting [12]) were 3.4 nM, 7550 nM and 1 nM, respectively.
For `CC(C)c1c(-c2cn(C)c3ncccc23)[nH]c2ccc(CCC3CN(Cc4c[nH]nn4)C3)nc12` [Example 704], the IC50 in assay [1] (setting [4]) was 13 nM; in assay [2] (setting [5]) it was 166 nM; in assay [3] (setting [6]), 11 nM.
In the case of `Cc1c(-c2[nH]c3ccc(N4C[C@@H](C)N(C(=O)CCN(C)C(C)(C)C)C[C@@H]4C)nc3c2C(C)C)cn2ncnc2c1C` [Example 914], the IC50 in assay [1] (setting [10]) turned out to be 0.94 nM; in assay [2] (setting [11]), 6050 nM; in assay [3] (setting [12]), 0.73 nM.
